Measurements published in US8362034B2, “Quinoline compound, and composition containing centipede extract or compounds isolated therefrom for prevention and treatment of cardiovascular disease” (Korea Research Institute of Bioscience and Biotechnology, priority 2005, dated 2013).

Columns and labels:
LDL = test: LDL-antioxidant activity by TBARS (Cu2+-mediated LDL-oxidation); format: biochemical, human
Method: Ed., Methods in Enzymology. Vol. 234, Oxygen radicals in biological systems Part D. Academic press, San Diego, 1994]. Three hundred ml of human plasma was taken, followed by centrifugation at 100,000×g for 24 hours with an ultracentrifuge. VLDL/chylomicrom layer floating in the supernatant was eliminated. […] At that time, the compounds were dissolved in dimethylsulfoxide (DMSO) and diluted at different concentrations to be ready for the experiment. DMSO alone was used as a negative control. As a positive control, probucol, a known antioxidant, was added. To each solution was added 10 μl of 0.25 mM CuSO4, followed by reaction at 37° C. for 4 hours. The reaction was terminated by addition of 1 ml of 20% trichloroacetic acid (TCA) solution. 1 ml of 0.67% TBA solution dissolved in 0.05 N NaOH solution was added thereto, followed by stirring for 10 seconds. The solution was heated at 95° C. for 5 minutes to induce color development and then cooled down with ice water. The solution was centrifuged at 3000 rpm for 5 minutes to separate the supernatant and OD540 was measured with UV/VIS spectrophotometer to measure the level of malondialdehyde (MDA) generated by the color development. In the meantime, to calculate the standard curve of malondialdehyde, the stock solution of malonaldehyde bis (dimethylacetal) was diluted, resulting in PBS standard solution containing 0˜10 nmol malondialdehyde. […] The malondialdehyde generated from the compounds of the invention was quantified and inhibitory activity and IC50 were also calculated.

hACAT-2 = target: T1, hACAT-2 (Homo sapiens, UniProt O75908); test: ACAT activity, hACAT-2 microsomes, [1-14C]oleoyl-CoA; format: biochemical; conditions: 100 μg/ml; read-out: Inhibitory activity (%) hACAT-2
T1 construct: made in house; host or cells: baculovirus; virus produced in sf9, protein expressed in Hi5 insect cells; microsome fraction used
T1 sequence (O75908 1-522): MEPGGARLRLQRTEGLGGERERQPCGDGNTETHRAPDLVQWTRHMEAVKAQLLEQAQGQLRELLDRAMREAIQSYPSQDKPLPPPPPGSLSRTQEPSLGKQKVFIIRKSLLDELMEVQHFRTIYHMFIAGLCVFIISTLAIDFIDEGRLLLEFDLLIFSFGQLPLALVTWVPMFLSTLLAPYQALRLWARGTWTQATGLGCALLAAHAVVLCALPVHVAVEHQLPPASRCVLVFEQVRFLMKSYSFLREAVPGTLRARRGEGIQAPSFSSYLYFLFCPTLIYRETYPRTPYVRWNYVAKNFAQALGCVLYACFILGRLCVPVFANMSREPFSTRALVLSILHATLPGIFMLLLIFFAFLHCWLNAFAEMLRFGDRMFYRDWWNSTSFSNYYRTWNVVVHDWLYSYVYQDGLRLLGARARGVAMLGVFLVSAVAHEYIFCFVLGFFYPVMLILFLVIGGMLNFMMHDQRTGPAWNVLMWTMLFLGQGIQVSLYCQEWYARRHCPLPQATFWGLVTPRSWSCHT
From the text: (§1) To investigate the effect on human ACAT-1 and ACAT-2 activities, hACAT-1 and hACAT-2 proteins were obtained using baculovirus expression system.
(§2) hACAT-1 and hACAT-2 cDNAs, obtained by human liver cDNA library screening, were inserted into the baculovirus transfer vector, which was introduced into an insect cell line sf9 to produce virus. Then, recombinant virus of each hACAT-1 and hACAT-2 was separated by plaque purification, followed by amplification three times to raise titer of the viral stock. Hi5 insect cells having high protein expression efficiency were infected with the recombinant virus (1 multiplicity of infection), followed by shaking culture at 27° C. for a day. Centrifugation was performed at 500×g for 15 minutes to separate microsome fractions from Hi5 cells over-expressing hACAT-1 and hACAT-2. The resultant cells were lysed in a hypotonic buffer by quick freezing-quick thawing, followed by ultracentrifugation at 100,000×g for one hour. The obtained microsome fractions were suspended in the hypotonic buffer until the concentration of the protein reached 8 mg/ml, which was stored in a deep freezer until use.
(§3) To measure the ACAT activity, [1-^14C] oleoly-CoA (56.0 μCi/μmol; Amersham) was used as a substrate and a method of Brecher & Chan was used with a slight modification [P. Brecher and C. Chan, Biochem. Biophys. Acta, 617, 458, 1980].
(§4) Ten μl of the centipede extracts or the compound prepared in the above Example was mixed with 4.0 μl of the microsomal solution prepared in Experimental Example <2-1>, 20.0 μl of an activity analyzing buffer (0.5 M KH2PO4, 10 mM DTT, pH 7.4; Sigma), 15.0 μl of fatty acid-free bovine serum albumin (fatty acid-free BSA, stock concentration 40 mg/ml; Sigma), 2.0 μl of cholesterol (stock solution 20 mg/ml; Sigma) and 41.0 μl of distilled water, which was preincubated at 37° C. for 15 minutes. […] The radioactivity of the mixture was measured with 1450 Microbeta liquid scintillation counter (Wallacoy).
(§5) ACAT activity was calculated as pmol of cholesteryl oleate synthesized per 1 mg of protein in one minute (pmol/minute/mg of protein).

hACAT-1 = target: T2, hACAT-1 (Homo sapiens, UniProt P35610); test: ACAT activity, hACAT-1 microsomes, [1-14C]oleoyl-CoA; format: biochemical; conditions: 100 μg/ml; read-out: Inhibitory activity (%) hACAT-1
T2 construct: made in house; host or cells: baculovirus; virus produced in sf9, protein expressed in Hi5 insect cells; microsome fraction used
T2 sequence (P35610 1-550): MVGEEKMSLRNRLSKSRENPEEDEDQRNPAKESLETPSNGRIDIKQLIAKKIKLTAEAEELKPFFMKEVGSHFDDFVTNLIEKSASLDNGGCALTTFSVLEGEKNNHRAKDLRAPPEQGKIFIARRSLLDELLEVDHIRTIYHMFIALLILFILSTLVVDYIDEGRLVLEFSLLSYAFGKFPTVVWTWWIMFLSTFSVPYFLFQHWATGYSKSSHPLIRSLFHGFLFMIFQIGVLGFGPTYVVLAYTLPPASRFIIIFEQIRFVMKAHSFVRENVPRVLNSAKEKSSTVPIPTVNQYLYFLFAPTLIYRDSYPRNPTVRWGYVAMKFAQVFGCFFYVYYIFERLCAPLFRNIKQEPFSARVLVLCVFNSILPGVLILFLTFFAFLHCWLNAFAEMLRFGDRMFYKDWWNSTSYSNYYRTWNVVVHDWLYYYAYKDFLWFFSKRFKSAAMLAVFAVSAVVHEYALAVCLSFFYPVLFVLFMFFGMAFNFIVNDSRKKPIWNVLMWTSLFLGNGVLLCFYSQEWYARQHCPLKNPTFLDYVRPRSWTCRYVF
From the text: as §1, §2, §3, §4, §5

IC50 (LDL) [µM] | inhibition at 100 µg/mL (hACAT-2) [%] | inhibition at 100 µg/mL (hACAT-1) [%] | Structure (SMILES)
3.1 | – | – | CC(C)(Sc1cc(C(C)(C)C)c(O)c(C(C)(C)C)c1)Sc1cc(C(C)(C)C)c(O)c(C(C)(C)C)c1 [Probucol, probucol, reference compound]
2.6 | 50 | 60 | Oc1cnc2c(O)cccc2c1 [Compound 1, 3,8-dihydroxyquinoline]
8.2 | 51 | 63 | CC(C)(C)c1ccc(O)c(C(C)(C)C)c1 [Compound 3, 2,4-di-tert-butylphenol]
63 | 58 | 79 | COc1c(O)nc2c(O)cccc2c1OC [Compound 2, 3,4-dimethoxyquinoline-2,8-diol]
